This is an account of results in PMC6881066, “Non-sedating benzodiazepines cause paralysis and tissue damage in the parasitic blood fluke Schistosoma mansoni” (PLoS Neglected Tropical Diseases, 2019).

For data set [1], the system named is adult male S. mansoni. In words: Adult schistosome mobility assay (inhibition of movement). Format: cell-based, Schistosoma mansoni. The note with it: for IC50: Schistosoma mansoni, adult male worms cultured in compound overnight, movement relative to DMSO control; for Potency at evoking coiled, contractile paralysis / activity against parasites (in words): in vitro, concentration-response, Fig 2B & 2C.

The target in data set [2] is mammalian GABAARs (central benzodiazepine binding site). In words: [3H]flunitrazepam displacement binding assay, rat cerebral cortex membranes. The note with it: rat brain membrane preparations, 0.4 nM radioligand, 60 min at 4°C. The procedure: Binding assays for benzodiazepines against mammalian GABAARs were performed measuring displacement of [3H] flunitrazepam (0.4 nM) from crude brain membrane preparations. Rat cerebral cortex membrane homogenate (80 μg protein) was incubated with 0.4 nM [3H]-flunitrazepam in 50 mM Tris-HCl (pH 7.7), plus test compounds (screened at concentrations ranging from 0.1 nM to 10 μM), and non-specific binding was assessed by incubation with diazepam (3 μM). Following incubation for 60 min at 4°C, samples were vacuum filtered through glass fiber filters (GF/B, Packard) presoaked with 0.3% PEI and rinsed with ice-cold 50 mM Tris-HCl (Unifilter, Packard). Filters were dried and counted for radioactivity in a scintillation counter (Topcount, Packard). Ki values of test compounds were calculated by the Cheng-Prusoff equation.

For data set [3], the system named is adult male S. mansoni. As to the kind of experiment: In vitro screen / re-screen for coiled, contractile (curl) phenotype. Format: cell-based, Schistosoma mansoni. The settings on record: for Worms showing curl phenotype: overnight.
The subject of a further data set is S. mansoni tegument. In words: Transmission electron microscopy of drug-treated worms (tegument damage). It is filed as cell-based, Schistosoma mansoni. Here is the method: Adult worms were harvested and recovered as above. Fixation was carried out overnight at 4°C in 2.5% glutaraldehyde/2% paraformaldehyde in 0.1 M sodium cacodylate (pH 7.3). Worms were washed 3 × 10 minutes in 0.1 M sodium cacodylate and post-fixed for 2 hours on ice in reduced 1% osmium tetraoxide. Worms were then washed 2 × 10 minutes in distilled water and stained overnight at 4°C in alcoholic Uranyl Acetate. Worms were rinsed in distilled water, dehydrated in 50%, 75% and 95% MeOH, followed by successive 10 minute rinses in 100% MeOH and acetonitrile. Worms were incubated in a 1:1 mix of acetonitrile and epoxy resin for 1 hour prior to 2 × 1 hour incubations in epoxy resin. Worms were then cut transversely and embedded overnight in epoxy resin (60°C). Ultra-thin sections (70 nm) were cut onto bare 200-mesh copper grids and stained in aqueous lead citrate for 1 minute. Sections were imaged on a Hitachi H-600 electron microscope fitted with a Hamamatsu C4742-95 digital camera) operating at an accelerating voltage of 75 kV.
Given the parasite-selectivity of imidazobenzodiazepines (Fig 3, blue) relative to MCLZ-like compounds (Fig 3, red), we investigated the effects of XliHeII-048, Xhe-II-048 and SH-I-055 on schistosome tissues in more detail. Specifically, we were interested in drug-evoked damage to the parasite tegument, which is a feature of many anti-schistosomal compounds [38]. Worms treated with DMSO vehicle control, MCLZ (5 μM) or various imidazobenzodiazepines (10 μM, based on effective concentrations determined in Fig 2) overnight were fixed and processed for imaging by transmission electron microcopy (TEM).
(§1) Fig 4 Xhe-II-048 damages the schistosome tegument. (A) Transmission electron microscopy images of transverse sections of S. mansoni exposed to either DMSO control, MCLZ (5 μM) or various imidazobenzodiazepines (10 μM, 14 hours). Dorsal tegument is oriented to the top. Scale = 2 μm. Arrowed = vacuoles beneath the tegument apical membrane. (B) Movement of worms treated with DMSO, MCLZ, or TMS-acetylene imidazobenzodiazepine compounds (10 μM, 14 hours), and recovery at various timepoints (3 hours, 1 day) following drug washout.

The subject of the next data set is S. mansoni. In words: Recovery of worm movement following drug washout. Format: cell-based, Schistosoma mansoni. The note with it: 14 hours treatment, recovery 3 hours, 1 day after washout. The procedure:
Female Swiss Webster mice infected with S. mansoni cercariae (NMRI strain) were sacrificed 49 days post infection by CO2 euthanasia. Adult schistosomes were recovered by dissection of the mesenteric vasculature. Harvested schistosomes were washed in DMEM (ThermoFisher cat. # 11995123) supplemented with HEPES (25mM), 5% v/v heat inactivated FCS (Sigma Aldrich cat. # 12133C) and Penicillin-Streptomycin (100 units/mL). Worms were cultured in 6 well dishes (4–5 male worms in 3mL media per well) in the presence of various test compounds or DMSO vehicle control overnight (37°C / 5% CO2). Worms were imaged the next day to record movement phenotypes using a Zeiss Discovery v20 stereomicroscope and a QiCAM 12-bit cooled color CCD camera controlled by Metamorph imaging software (version 7.8.1.0). 1 minute recordings were acquired at 4 frames per second and saved as a .TIFF stack, which was imported into ImageJ for analysis. An outline of the workflow used to quantify movement from these video recordings is shown in S1 Fig. Maximum intensity projections were generated for the entire stack of images (241 frames for a 1-minute recording) and integrated pixel values were measured for the resulting composite image, allowing normalization of movement relative to DMSO control treated worms. Inhibition of movement IC50 values were calculated using GraphPad Prism v8.1.1 and are expressed ± 95% confidence intervals. Data represents mean ± standard error for ≥3 independent experiments. Significance (*) was determined by unpaired t-test at a threshold of 0.05.
as §1

Another data set deals with schistosomes. More on the design: method as in PMID 380021. The settings on record: human clinical trials; cited from earlier work.
The subject of a further data set is SmGluCl. More on the design: method as in PMID 24009509. The settings on record: cited from earlier work.
Another data set deals with S. japonicum. The settings on record: no reference given; cited from earlier work.
The conditions of data set [4]: cited from earlier work.
The conditions of data set [5]: human clinical trials; cited from earlier work.
Another data set relates to schistosomiasis. More on the design: method as in PMID 21695161, PMID 28619227. The settings on record: PZQ treatment; cited from earlier work.
Setting [6] is: inactive compounds tested at concentrations as high as 50 μM.

Entries after “also recorded” stand apart in the source; their conditions may differ. Where two headings read alike, the source gives them in different places.

In the case of `O=C1CN=C(c2ccccc2Cl)c2cc([N+](=O)[O-])ccc2N1` [CLZ, clonazepam, reference compound], the “Decrease in potency relative to MCLZ (loss of C3 methyl group)” value with adult male S. mansoni [1] (Fig 3) is given as > 3 log. Moreover, in the data set on adult male S. mansoni [1] (setting [6]), half-maximal inhibition (IC50) required 1.9 µM. Besides, in data set [2], affinity was put at a Ki of 0.00082 µM.

As to `C[C@H]1N=C(c2ccccc2F)c2cc(C#C[Si](C)(C)C)ccc2NC1=O` [GL-I-61], in the data set with adult male S. mansoni [3] (10 micromolar), the “Worms showing curl phenotype” value is reported as 3/8 curling at 10 micromolar.

Regarding `O=C1CN=C(c2ccc(Cl)cc2)c2cc(Cl)ccc2N1` [GL-I-74], in the data set with adult male S. mansoni [3] (10 micromolar), the “Worms showing curl phenotype” value is on record as 1/8 curl at 10 micromolar.

For `CCOC(=O)c1ncn2c1[C@H](C)N=C(c1ccccc1F)c1cc(C3CC3)ccc1-2` [GL-I-78], in the data set with adult male S. mansoni [1], the “Potency at evoking coiled, contractile paralysis / activity against parasites (in words)” value is on record as “dramatically decreased affinity”. The “Worms showing curl phenotype” value in the data set on adult male S. mansoni [3] (10 micromolar) is “Inactive (0/8 curl) at 10 micromolar”.

Consider `C[C@H]1N=C(c2ccccc2F)c2cc(Br)ccc2-n2cnc(-c3cnco3)c21` [GL-III-36], for which the “Worms showing curl phenotype” value with adult male S. mansoni [3] (10 micromolar) was “inactive (0/8 curling) at 10 micromolar”.

Take `C[C@H]1N=C(c2ccccc2F)c2cc(C#C[Si](C)(C)C)ccc2-n2cnc(-c3cnco3)c21` [GL-III-72]: the “Worms showing curl phenotype” value in the data set with adult male S. mansoni [3] (10 micromolar) is recorded as 5/8 curl at 10 micromolar.

`Brc1ccc2c(c1)C(c1ccccc1)=NCc1c(-c3cnco3)ncn1-2` [KRM-II-73]: the “Worms showing curl phenotype” value in the data set with adult male S. mansoni [3] (10 micromolar) is 2/8 curl at 10 micromolar.

As for `Cc1ncoc1-c1ncn2c1CN=C(c1ccccc1)c1cc(Br)ccc1-2` [KRM-III-66], the “Worms showing curl phenotype” value with adult male S. mansoni [3] (10 micromolar) is 6/8 curl at 10 micromolar.

As to `C#Cc1ccc2c(c1)C(c1ccccn1)=NCc1c(-c3ocnc3C)ncn1-2` [KRM-III-79], in the data set on adult male S. mansoni [3] (10 micromolar), the “Worms showing curl phenotype” value is 5/8 curl at 10 micromolar.

As for `C[C@@H]1N=C(c2ccccc2Cl)c2cc([N+](=O)[O-])ccc2NC1=O` [MCLZ, meclonazepam], the IC50 (as a rule, the point on the concentration scale where inhibition reaches its midpoint) in the data set with adult male S. mansoni [1] worked out at 0.16 µM. For the same compound, in data set [2], the Ki (usually a measure of affinity in units of concentration, obtained from inhibition or displacement) is 0.0024 µM. In addition, in the data set on S. mansoni tegument (5 μM, overnight), the “Tegument ultrastructure (TEM)” value is “pervasive vacuolization of the tegument”. Further, the “Recovery of movement following drug washout” value (“Recovery” below) in the data set with S. mansoni (MCLZ) is “do not recover movement”. Besides, the Effective anti-parasitic dose in the data set on schistosomes is 0.2 to 0.3 mg/kg. Also, the “Activity against SmGluCl” value with SmGluCl is “inactive”. Also, the “Activity against S. japonicum” value with S. japonicum was “inactive”. Moreover, in data set [4] (MCLZ), the Bioavailability entry is “orally bioavailable” and the Half-life entry is recorded as “up to 80 hours”. Moreover, the “Dose at which sedation was reported” value in [5] is on record as “above 0.3 mg/kg”.

The compound `C[C@@H]1N=C(c2ccccc2)c2cc([N+](=O)[O-])ccc2NC1=O` [MYM-I-88] had a concentration for half-maximal inhibition (IC50) with adult male S. mansoni [1] (setting [6]) of 26 µM. Besides, the Ki in [2] amounted to 0.0764 µM.

The compound `C[C@@H]1N=C(c2ccccc2F)c2cc([N+](=O)[O-])ccc2NC1=O` [MYM-I-91A] had an IC50 with adult male S. mansoni [1] (setting [6]) of 7.2 µM. The same compound had an inhibition constant Ki in [2] of 0.0121 µM.

`C[C@@H]1N=C(c2ccccc2Cl)c2cc([N+](=O)[O-])ccc2N(C)C1=O` [MYM-II-53]: in the data set on adult male S. mansoni [1] (setting [6]), the IC50 is > 50 µM. The compound also displayed a Ki in data set [2] of 0.0041 µM.

With `O=C(C1CCCCC1)N1CC(=O)N2CCc3ccccc3C2C1` (centres unmarked) [PZQ, praziquantel], the Cure rates in the data set with schistosomiasis is listed as 70–90%.

Consider `C#Cc1ccc2c(c1)C(c1ccccc1F)=N[C@@H](C)c1c(C(=O)OCC)ncn1-2` [SH-053-2’F-S-CH3], for which the “Potency at evoking coiled, contractile paralysis / activity against parasites (in words)” value in the data set on adult male S. mansoni [1] is “dramatically decreased affinity”.

On to `CCOC(=O)c1ncn2c1[C@H](C)N=C(c1ccccc1F)c1cc(Br)ccc1-2` [SH-I-48B], for which the “Potency at evoking coiled, contractile paralysis / activity against parasites (in words)” value in the data set with adult male S. mansoni [1] is “dramatically decreased affinity”. Also, the “Activity (curl phenotype)” value in the data set on adult male S. mansoni [3] (up to 100 micromolar) is recorded as “Inactive up to 100 micromolar”.

The compound `CCOC(=O)c1ncn2c1[C@H](C)N=C(c1ccccc1F)c1cc(C#C[Si](C)(C)C)ccc1-2` [SH-I-055] yielded an IC50 in the data set with adult male S. mansoni [1] (setting [6]) of 1.4 µM. Besides, in the data set with adult male S. mansoni [1] (movement IC50 comparison), the “Times less potent than XliHeII-048” value is on record as ~ 3 times. Besides, in [2], the affinity, expressed as Ki, was 1.7 µM. Further, the “Tegument ultrastructure (TEM)” value with S. mansoni tegument (10 μM, overnight (14 hours)) is listed as “normal tissue ultrastructure”. Also, in the data set on S. mansoni (10 μM), the “Recovery” value is “recovering by 1 day after drug washout”. Moreover, the “Worms showing curl phenotype” value in the data set with adult male S. mansoni [3] (5 micromolar) is reported as 4/8; in the data set with adult male S. mansoni [3] (10 micromolar), 8/8.

As for `CCOC(=O)c1ncn2c1[C@@H](C)N=C(c1ccccc1F)c1cc(C#C[Si](C)(C)C)ccc1-2` [SH-I-060], the “Potency at evoking coiled, contractile paralysis / activity against parasites (in words)” value with adult male S. mansoni [1] is “marked decrease in potency; also recorded: essentially inactive”.

Take `CCOC(=O)c1ncn2c1CN=C(c1ccccc1)c1cc(C#C[Si](C)(C)C)ccc1-2` [Xhe-II-048]: the midpoint of inhibition with adult male S. mansoni [1], the IC50, lay at 0.85 µM. The compound also yielded a Ki in data set [2] of 2.5 µM. Further, the “Tegument ultrastructure (TEM)” value in the data set with S. mansoni tegument (10 μM, overnight (14 hours)) is on record as “extensive vacuole distribution beneath the apical membrane”. Besides, the “Recovery” value in the data set with S. mansoni (10 μM) is listed as “did not recover movement up to one day”.

Compound `CCOC(=O)c1ncn2c1CN=C(c1ccccc1F)c1cc(C#C[Si](C)(C)C)ccc1-2` [XliHeII-048] had an IC50 in the data set on adult male S. mansoni [1] of 0.54 µM. The compound also yielded a Ki in data set [2] of 1.6 µM. Moreover, the “Tegument ultrastructure (TEM)” value in the data set with S. mansoni tegument (10 μM, overnight (14 hours)) is on record as “normal tissue ultrastructure”. Also, in the data set with S. mansoni (10 μM), the “Recovery” value is listed as “recovering by 1 day after drug washout”. Besides, in the data set with adult male S. mansoni [3] (10 micromolar), the “Worms showing curl phenotype” value is given as 5/5.

With `CCOC(=O)c1ncn2c1CN(C)C(=O)c1cc(F)ccc1-2` [flumazenil], the Elimination half-life in data set [4] (flumazenil, administered by IV) is < 1 h. For the same compound, the Bioavailability result in data set [4] (flumazenil) is listed as “poor bioavailability”.

For the compound `O=C1CN=C(c2ccccc2)c2cc([N+](=O)[O-])ccc2N1` [nitrazepam, reference compound], the IC50 with adult male S. mansoni [1] (setting [6]) is > 50 µM. Besides, in the data set on adult male S. mansoni [1], the “Potency at evoking coiled, contractile paralysis / activity against parasites (in words)” value is “inactive against parasites”.
